Assay results taken from patent US5536714A, “Steroid derivatives for the treatment of prostatic hypertrophy their preparation and uses” (Sankyo Company, Limited, priority 1992, dated 1996).

System: Rat 5α-Reductase
Assay: Rat 5α-Reductase Inhibition Test
Type: biochemical, rat (Sprague-Dawley, ventral prostate)
Conditions: final concentration of test compound 10^-8 M; 1 μM [14C]-testosterone; pH 6.5; 37° C., 15 to 30 minutes
Experimental: The tissue was then homogenized, first with a Polytron (trade mark) homogenizer (manufactured by Kinematica, GmbH) and then with a Teflon-glass homogenizer (Teflon is a trade mark). The suspension of homogenized prostate tissue was then centrifuged (140000×g, 60 minutes), and the sediment was suspended by adding approximately a 5-fold amount of the above buffer. The suspension was again centrifuged (140000×g, 60 minutes). […] This was adjusted to a protein concentration of 30 to 40 mg/ml by the addition of the buffer described above, and the preparation was then stored frozen at -80° C. Measurement of the amount of protein was performed using the Bio-Rad Protein Assay method, and bovine γ-globulin (Cohn Fraction II, manufactured by Sigma) was used for the protein reference standard. […] The mixture was then incubated at 37° C. for 15 to 30 minutes. Testing was also performed on a control group by adding solvent only. Following incubation, 2 ml of ethyl acetate, containing 10 μg each of testosterone, 5α-dihydrotestosterone and androstenedione, were added to stop the reaction. […] The steroid was dissolved in 40 μl of ethyl acetate and spotted onto a thin layer chromatographic plate (LK5DF silica plate, manufactured by Whatman). The plate was then developed twice at room temperature with a mixture of ethyl acetate and cyclohexane (1:1 by volume). The steroid fraction was identified with ultraviolet light and stained using an aqueous solution of 1% w/v […] and 10% w/v sulfuric acid. The radioactivity profiles of the thin layer chromatographic plate were measured using a bio-image analyzer (manufactured by Fuji Photo Film). Enzyme activity was expressed as the proportion of [^14 C]-5α-dihydrotestosterone that was converted from the [^14 C]-testosterone (conversion rate (%)) added. […]

| Compound | Inhibitory Activity |
| --- | --- |
| CC(C)(C)NC(=O)[C@H]1CC[C@H]2[C@@H]3CC=C4C=C(C(=O)O)CC[C@]4(C)[C@H]3CC[C@]12C [Compound B, 17β-t-butylcarbamoylandrosta-3,5-diene-3-carboxylic acid, reference compound] | 28.1% |
| C[C@]12CC[C@H]3[C@@H](CC=C4C=C(C(=O)O)CC[C@@]43C)[C@@H]1CC[C@@H]2C(=O)NC(c1ccccc1)c1ccccc1 [Example 1, 17β-[N-(Diphenylmethyl)carbamoyl]androsta-3,5-diene-3-carboxylic acid] | 70.6% |
| COc1ccc(C(C)(C)NC(=O)[C@H]2CC[C@H]3[C@@H]4CC=C5C=C(C(=O)O)CC[C@]5(C)[C@H]4CC[C@]23C)cc1 [Example 2, 17β-{N-[1-(4-Methoxyphenyl)-1-methylethyl]carbamoyl}androsta-3,5-diene-3-carboxylic acid] | 70.6% |
| C[C@]12CC[C@H]3[C@@H](CC=C4C=C(C(=O)O)CC[C@@]43C)[C@@H]1CC[C@@H]2C(=O)NC(Cc1ccccc1)c1ccccc1 (stereo partly drawn) [Example 6, 17β-[N-(1,2-Diphenylethyl)carbamoyl]androsta-3,5-diene-3-carboxylic acid] | 89.4% |
| COc1ccc(C(C)(C)NC(=O)[C@H]2CC[C@H]3[C@@H]4CC=C5C=C(C(=O)O)CC[C@]5(C)[C@H]4CC[C@]23C)cc1OC [Example 7, 17β-{N-[1-(3,4-Dimethoxyphenyl)-1-methylethyl]carbamoyl}androsta-3,5-diene-3-carboxylic acid] | 70.3% |
| COc1cccc(C(C)(C)NC(=O)[C@H]2CC[C@H]3[C@@H]4CC=C5C=C(C(=O)O)CC[C@]5(C)[C@H]4CC[C@]23C)c1 [Example 9, 17β-{N-[1-(3-Methoxyphenyl)-1-methylethyl]carbamoyl}androsta-3,5-diene-3-carboxylic acid] | 77.9% |
| Cc1ccc(C(C)(C)NC(=O)[C@H]2CC[C@H]3[C@@H]4CC=C5C=C(C(=O)O)CC[C@]5(C)[C@H]4CC[C@]23C)cc1 [Example 11, 17β-{N-[1-(4-Methylphenyl)-1-methylethyl]carbamoyl}androsta-3,5-diene-3-carboxylic acid] | 73.5% |
| CCC(CC)(NC(=O)[C@H]1CC[C@H]2[C@@H]3CC=C4C=C(C(=O)O)CC[C@]4(C)[C@H]3CC[C@]12C)c1ccccc1 [Example 12, 17β-[N-(1-Ethyl-1-phenylpropyl)carbamoyl]androsta-3,5-diene-3-carboxylic acid] | 74.0% |
| CCOc1ccc(C(C)(C)NC(=O)[C@H]2CC[C@H]3[C@@H]4CC=C5C=C(C(=O)O)CC[C@]5(C)[C@H]4CC[C@]23C)cc1 [Example 13, 17β-{N-[1-(4-Ethoxyphenyl)-1-methylethyl]carbamoyl}androsta-3,5-diene-3-carboxylic acid] | 84.3% |
| C[C@]12CC[C@H]3[C@@H](CC=C4C=C(C(=O)O)CC[C@@]43C)[C@@H]1CC[C@@H]2C(=O)NC(c1ccccc1)c1ccc(O)cc1 (stereo partly drawn) [Example 15, 17β-[N-(4-Hydroxybenzhydryl)carbamoyl]androsta-3,5-diene-3-carboxylic acid] | 73.3% |
| C[C@]12CC[C@H]3[C@@H](CC=C4C=C(C(=O)O)CC[C@@]43C)[C@@H]1CC[C@@H]2C(=O)NC(c1ccc(F)cc1)c1ccc(F)cc1 [Example 16, 17β-[N-(4,4'-Difluorobenzhydryl)carbamoyl]androsta-3,5-diene-3-carboxylic acid] | 81.7% |
| COc1ccc(C(NC(=O)[C@H]2CC[C@H]3[C@@H]4CC=C5C=C(C(=O)O)CC[C@]5(C)[C@H]4CC[C@]23C)c2ccccc2)cc1 (stereo partly drawn) [Example 21, 17β-[N-(4-Methoxybenzhydryl)carbamoyl]androsta-3,5-diene-3-carboxylic acid] | 84.9% |
| C[C@]12CC[C@H]3[C@@H](CC=C4C=C(C(=O)O)CC[C@@]43C)[C@@H]1CC[C@@H]2C(=O)N(Cc1ccccc1)Cc1ccccc1 [Example 25, 17β-(N,N-Dibenzylcarbamoyl)androsta-3,5-diene-3-carboxylic acid] | 79.3% |
